Measurements taken from patent US20080200490A1, “Alpha-(Aryl-or Heteroaryl-Methyl)-Beta-Piperidino Propanamide Compounds as Orl-1-Receptor Antagonists” (PFIZER INC., priority 2005, published 2008).
Structures can show the parent of a compound that is named as a salt. Where two headings read alike, the source gives them in different places.

Columns and labels:
[1] = biological target: T1, human ORL1 receptor (Homo sapiens, UniProt P41146); assay: ORL1-Receptor Binding Assay; conditions: [3H]nociceptin, human ORL1 receptor transfected HEK-293 cell membranes
T1 construct: purchased PerkinElmer; host or cells: HEK-293 cells transfected with human ORL1 receptor (membranes)
Protocol: The human ORL1 receptor transfected HEK-293 cell membranes (PerkinElmer) were incubated for 45 min at room temperature with 0.4 nM [^3H]nociceptin, 1.0 mg of wheat germ agglutinin(WGA)-coated SPA beads and various concentrations of test compounds in a final volume of 200 μL of 50 mM HEPES buffer pH 7.4 containing 10 mM MgCl2 and 1 mM EDTA. Non-specific binding (NSB) was determined by the addition of 1 μM unlabeled nociceptin. After the reaction, the assay plate was centrifuged at 1,000 rpm for 1 min and then the radioactivity was measured by WALLAC 1450 MicroBeta Trilux.
The compounds of the examples were tested in the ORL1 Receptor Binding assay.

[2] = biological target: T2, HERG (Homo sapiens, UniProt Q12809); type: binding
T2 construct: expressed in transfected cells; host or cells: HEK-293
Protocol: Cell paste of HEK-293 cells expressing the HERG product was suspended in 10-fold volume of 50 mM Tris buffer adjusted at pH 7.5 at 25° C. with 2 M HCl containing 1 mM MgCl2, 10 mM KCl. The cells were homogenized using a Polytron homogenizer (at the maximum power for 20 seconds) and centrifuged at 48,000 g for 20 minutes at 4° C. The pellet was resuspended, homogenized and centrifuged once more in the same manner. The resultant supernatant was discarded and the final pellet was resuspended (10-fold volume of 50 mM Tris buffer) and homogenized at the maximum power for 20 seconds. The membrane homogenate was aliquoted and stored at −80° C. until use. An aliquot was used for protein concentration determination using a Protein Assay Rapid Kit and ARVO SX plate reader (Wallac). […] Saturation was determined by incubating 20 μl of [^3H]-dofetilide and 160 μl of membrane homogenates (20-30 μg protein per well) for 60 min at room temperature in the absence or presence of 10 μM dofetilide at final concentrations (20 μl) for total or nonspecific binding, respectively. […] Receptor-bound radioactivity was quantified by liquid scintillation counting using Packard LS counter.
For the competition assay, compounds were diluted in 96 well polypropylene plates as 4-point dilutions in semi-log format. […] Receptor-bound radioactivity was quantified by counting Wallac MicroBeta plate counter. […]

T1 sequence (P41146 whole entry): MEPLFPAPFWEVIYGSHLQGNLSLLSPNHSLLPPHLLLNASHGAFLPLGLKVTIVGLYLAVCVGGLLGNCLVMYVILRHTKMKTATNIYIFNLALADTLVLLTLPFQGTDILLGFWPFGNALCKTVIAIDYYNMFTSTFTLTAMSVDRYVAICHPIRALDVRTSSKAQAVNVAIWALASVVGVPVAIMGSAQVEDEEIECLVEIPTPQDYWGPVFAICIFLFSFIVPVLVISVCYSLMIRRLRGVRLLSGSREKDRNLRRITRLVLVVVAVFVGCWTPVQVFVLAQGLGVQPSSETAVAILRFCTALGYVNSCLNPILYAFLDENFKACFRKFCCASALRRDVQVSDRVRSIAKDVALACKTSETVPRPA
T2 sequence (Q12809 whole entry): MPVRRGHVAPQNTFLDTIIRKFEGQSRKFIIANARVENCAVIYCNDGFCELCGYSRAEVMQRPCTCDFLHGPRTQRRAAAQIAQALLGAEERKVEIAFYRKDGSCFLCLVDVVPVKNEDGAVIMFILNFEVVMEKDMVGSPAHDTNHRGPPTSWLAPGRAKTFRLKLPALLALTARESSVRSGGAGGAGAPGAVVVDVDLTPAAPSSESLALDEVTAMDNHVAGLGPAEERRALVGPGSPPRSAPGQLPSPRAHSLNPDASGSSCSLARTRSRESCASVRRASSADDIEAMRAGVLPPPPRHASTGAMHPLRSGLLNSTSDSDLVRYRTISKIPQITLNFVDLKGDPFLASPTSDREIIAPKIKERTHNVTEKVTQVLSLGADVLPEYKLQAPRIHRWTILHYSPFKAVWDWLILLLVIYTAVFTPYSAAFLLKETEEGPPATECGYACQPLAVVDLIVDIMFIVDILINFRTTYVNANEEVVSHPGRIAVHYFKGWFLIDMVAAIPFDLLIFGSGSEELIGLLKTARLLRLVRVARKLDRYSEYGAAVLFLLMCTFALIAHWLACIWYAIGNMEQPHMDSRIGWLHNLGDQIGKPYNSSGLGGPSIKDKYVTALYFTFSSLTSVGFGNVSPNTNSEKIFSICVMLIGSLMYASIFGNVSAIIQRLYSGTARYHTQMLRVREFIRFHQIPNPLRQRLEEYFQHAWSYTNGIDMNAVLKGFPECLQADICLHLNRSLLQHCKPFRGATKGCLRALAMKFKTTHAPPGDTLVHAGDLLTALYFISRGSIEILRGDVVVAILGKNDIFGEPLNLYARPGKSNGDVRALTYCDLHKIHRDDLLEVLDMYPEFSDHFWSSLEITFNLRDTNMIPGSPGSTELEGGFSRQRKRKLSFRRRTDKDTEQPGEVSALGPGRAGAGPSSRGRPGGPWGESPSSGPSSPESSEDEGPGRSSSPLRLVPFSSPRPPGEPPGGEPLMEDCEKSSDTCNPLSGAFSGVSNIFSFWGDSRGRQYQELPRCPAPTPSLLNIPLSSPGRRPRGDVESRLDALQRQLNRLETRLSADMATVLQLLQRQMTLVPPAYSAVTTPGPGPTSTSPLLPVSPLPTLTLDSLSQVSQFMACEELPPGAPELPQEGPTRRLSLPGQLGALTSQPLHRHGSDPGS

`CN(C)C(=O)C(CN1C2CCC1CC1(C2)OCCc2cc(F)ccc21)Cn1cccn1` (stereo not drawn) [Example 11, 3-(6′-FLUORO-3′,4′-DIHYDRO-8H-SPIRO[8-AZABICYCLO[3.2.1]OCTANE-3,1′-ISOCHROMEN]-8-YL)—N,N-DIMETHYL-2-(1H-PYRAZOL-1-YLMETHYL)P[…], CITRATE] showed a Ki ([1]; read-out: Ki) of 1.3 nM.
`CN(C)C(=O)C(CN1C2CCC1CC1(C2)OCc2ccc(F)cc21)Cn1cccn1` (single isomer, unassigned) [Example 8, 3-(6′-FLUORO-3′H,8H-SPIRO[8-AZABICYCLO[3.2.1]OCTANE-3,1′-[2]BENZOFURAN]-8-YL)-N,N-DIMETHYL-2-(1H-PYRAZOL-1-YLMETHYL)P[…], CITRATE] was tested, and the Ki ([1]; read-out: Ki) was 2.6 nM.
Work on `CN(C)C(=O)C(CN1C2CCC1CC1(C2)OCc2ccccc21)Cn1cccn1` (stereo not drawn) [Example 2, N,N-DIMETHYL-3-(1H-PYRAZOL-1-YL)-2-(3′H,8H-SPIRO[8-AZABICYCLO[3.2.1]OCTANE-3,1′-[2]BENZOFURAN]-8-YLMETHYL)P[…], CITRATE] yielded a Ki ([1]; read-out: Ki) of 2.4 nM.
`CN(C)C(=O)C(CN1C2CCC1CC1(C2)OCCc2ccccc21)Cn1cccn1` (stereo not drawn) [Example 10, 3-(3′,4′-DIHYDRO-8H-SPIRO[8-AZABICYCLO[3.2.1]OCTANE-3,1′-ISOCHROMEN]-8-YL)-N,N-DIMETHYL-2-(1H-PYRAZOL-1-YLMETHYL)P[…], CITRATE] was tested, and the Ki ([1]; read-out: Ki) was 7.2 nM.
Work on `CN(C)C(=O)C(CN1C2CCC1CC1(C2)OCc2ccc(F)cc21)Cn1cccn1` (stereo not drawn) [Example 5, 3-(6′-FLUORO-3′H,8H-SPIRO[8-AZABICYCLO[3.2.1]OCTANE-3,1′-[2]BENZOFURAN]-8-YL)-N,N-DIMETHYL-2-(1H-PYRAZOL-1-YLMETHYL)P[…], CITRATE] yielded a Ki ([1]; read-out: Ki) of 3.6 nM.
`CN(C)C(=O)C(Cc1cscn1)CN1C2CCC1CC1(C2)OCc2ccccc21` (stereo not drawn) [Example 1, N,N-DIMETHYL-3-(3′H,8H-SPIRO[8-AZABICYCLO[3.2.1]OCTANE-3,1′-[2]BENZOFURAN]-8-YL)-2-(1,3-THIAZOL-4-YLMETHYL)P[…], CITRATE] gave a Ki ([1]; Ki) of 1.8 nM.
In the case of `CN(C)C(=O)C(CN1C2CCC1CC1(C2)OCc2ccc(F)cc21)Cn1cccn1` (single isomer, unassigned; (-)) [Example 7, (−)-3-(6′-FLUORO-3′H,8H-SPIRO[8-AZABICYCLOr3.2.1]OCTANE-3,1′-[2]BENZOFURAN]-8-YL)-N,N-DIMETHYL-2-(1H-PYRAZOL-1-YLMETHYL)PROPANAMIDE], the Ki ([1]; read-out: Ki) is reported as 3.6 nM.
For `CN(C)C(=O)C(Cc1cscn1)CN1C2CCC1CC1(C2)OCc2ccc(F)cc21` (stereo not drawn) [Example 9, 3-(6′-FLUORO-3′H,8H-SPIRO[8-AZABICYCLO[3.2.1]OCTANE-3,1′-[2]BENZOFURAN]-8-YL)-N,N-DIMETHYL-2-(1,3-THIAZOL-4-YLMETHYL) P[…]], the Ki ([1]; read-out: Ki) was 3.8 nM.
Molecule `CN(C)C(=O)C(CN1C2CCC1CC1(C2)OCCc2cc(F)ccc21)Cn1cccn1` (single isomer, unassigned; (-)) [Example 13, (−)-3-(6′-FLUORO-3′,4′-DIHYDRO-8H-SPIRO[8-AZABICYCLO[3.2.1]OCTANE-3,1′-ISOCHROMEN]-8-YL)-N,N-DIMETHYL-2-(1H-PYRAZOL-1-YLMETHYL)PROPANAMIDE] has a Ki ([1]; read-out: Ki) of 1 nM.
With `CN(C)C(=O)C(CN1C2CCC1CC1(C2)OCCc2cc(F)ccc21)Cn1cccn1` (single isomer, unassigned; (+)) [Example 12, (+)-3-(6′-FLUORO-3′,4′-DIHYDRO-8H-SPIRO[8-AZABICYCLO[3.2.1]OCTANE-3,1′-ISOCHROMEN]-8-YL)-N,N-DIMETHYL-2-(1H-PYRAZOL-1-YLMETHYL)P[…], CITRATE] the Ki ([1]; read-out: Ki) was 140 nM.
For `CN1C(=O)C(CN2CCC3(CCc4ccccc43)CC2)Cc2ccccc21` (stereo not drawn) [Compound (I)], the “activity in the dofetilide binding assay” value [2] was “potent activity”.
For `CN(C)C(=O)C(CN1C2CCC1CC1(C2)OCc2ccccc21)Cn1cccn1` (single isomer, unassigned; (+)) [Example 3, (+)-N,N-DIMETHYL-3-(1H-PYRAZOL-1-YL)-2-(3′H,8H-SPIRO[8-AZABICYCLO[3.2.1]OCTANE-3,1′-[2]BENZOFURAN]-8-YLMETHYL)P[…], CITRATE], the Ki ([1]; read-out: Ki) was 2 nM.
